The structures appear in SMILES notation.

This is an account of results in EP2951180B1, “2,6,7,8 SUBSTITUTED PURINES AS HDM2 INHIBITORS” (Merck Sharp & Dohme Corp., priority 2013, dated 2014).

The target of one assay is T1, HDM2 (Homo sapiens, UniProt Q00987).
T1 construct: Thioredoxin (N); made in house; host or cells: E. coli strain BL21(DE3)Rosetta
T1 sequence (Q00987 17-125): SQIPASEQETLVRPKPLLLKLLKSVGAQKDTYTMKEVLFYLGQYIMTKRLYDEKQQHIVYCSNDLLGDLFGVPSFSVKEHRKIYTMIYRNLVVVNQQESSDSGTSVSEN
The assay can be described thus: HDM2 FRET assay (inhibition of binding of FITC labeled p53-pocket peptide to HDM2). To be noted: 0.5 nM HDM2 (residues 17 to 125), 3nM peptide, two hour incubation at room temperature; read-out: FRET IC50. From the text: Methods: An HDM2 FRET assay was developed to assess the compounds' inhibitory activity towards binding of p53 protein. […] Protein was purified using Ni-affinity chromatography, followed by size exclusion chromatography using Superdex 75 26/60 column. […] The HDM2 assay buffer contained 1x Phosphate Buffered Saline (Invitrogen, Cat#14190), 0.01% BSA (Jackson ImmunoResearch, Cat# 001-000-162), 0.01% Tween-20. In the 1X assay buffer recombinant HDM2 protein, peptide and Lumi4-Tb Cryptate-conjugate mouse anti-6xHis antibody (cisbio, Cat#Tb61HISTLB) were added and transferred to ProxiPlate PLUS (PerkinElmer, Cat#6008269), containing compounds so that final DMSO concentration is 0.1% . Final concentrations of reagents in the assay wells are 0.5 nM HDM2, 0.25nM anti HIS (Tb label) antibody and 3nM peptide. […] Ratio of em520/em495 was used to calculate %inhibition and to obtain IC50 with 4-parameter logistic equation.
IC50 DETERMINATIONS: Dose-response curves were plotted from the inhibition data, from 10 point serial dilutions of inhibitory compounds. Concentration of compound was plotted against em520/Cem495 ratio signal. To generate IC50 values, the dose-response curves were fitted to a standard sigmoidal curve and IC50 values were derived by nonlinear regression analysis.
For orientation: IC50 means the concentration that inhibits the measured activity by half. In the case of `CC(C)c1ccnc(-c2nc3nc(C(=O)O)nc(OC(C)C4CCC4)c3n2Cc2ccc(C(F)(F)F)c(F)c2)c1` (racemic) [Example 17.7, 6-(1-cyclobutylethoxy)-7-[3-fluoro-4-(trifluoromethyl)benzyl]-8-[4-(propan-2-yl)pyridin-2-yl]-7H-purine-2-carboxylic acid], the concentration for half-maximal inhibition (IC50) is 15 nM.
`CC(C)c1ccnc(-c2nc3nc(C(=O)O)nc(OC(C)C4CCC4)c3n2C[C@H]2CC[C@H](C)CC2)c1` (mixture of isomers) [Example 17.8, 6-(1-cyclobutylethoxy)-7-[(trans-4-methylcyclohexyl)methyl]-8-[4-(propan-2-yl)pyridin-2-yl]-7H-purine-2-carboxylic acid]: the IC50 came out at 10.3 nM.
Regarding `CC1CN(C)CCN1c1nc2nc(-c3noc(=O)[nH]3)nc(-c3cccc(Cl)c3)c2n1C[C@H]1CC[C@H](C)CC1` (relative stereo) [Example 16.53, 3-{6-(3-chlorophenyl)-8-(2,4-dimethylpiperazin-1-yl)-7-[(trans-4-methylcyclohexyl)methyl]-7H-purin-2-yl}-1,2,4-oxadiazol-5(4H)-one], the IC50 was 42.8 nM.
On to `C[C@H]1CC[C@H](Cn2c(N3CCC4OCCC43)nc3nc(-c4noc(=O)[nH]4)nc(-c4cccc(Cl)c4)c32)CC1` (relative stereo) [Example 16.150, 3-{6-(3-chlorophenyl)-8-(hexahydro-4H-furo[3,2-b]pyrrol-4-yl)-7-[(trans-4-methylcyclohexyl)methyl]-7H-purin-2-yl}-1,2,4-oxadiazol-5(4H)-one], for which the IC50 stood at 45 nM.
As to `CC(c1nc2nc(-c3noc(=O)[nH]3)nc(-c3cccc(Cl)c3)c2n1C[C@H]1CC[C@H](C)CC1)C1CCOCC1` (relative stereo) [Example 24.3, 3-{6-(3-chlorophenyl)-7-[(trans-4-methylcyclohexyl)methyl]-8-[1-(tetrahydro-2H-pyran-4-yl)ethyl]-7H-purin-2-yl}-1,2,4-oxadiazol-5(4H)-one], the IC50 is 14.2 nM.

Staying with this assay, now noted: Table 9; read-out: FRET IC50.
As for `C[C@@H](Nc1nc(C(=O)O)nc2nc(N3CCCC3c3ccccc3)n(Cc3ccc(C(F)(F)F)cc3)c12)C1CCC1` (single isomer, unassigned) [Example 9.64], the IC50 came to 10.2 nM.
Turning to `C[C@@H](Nc1nc(C(=O)O)nc2nc(N3CCCC3c3ccccc3)n(Cc3ccc(C(F)(F)F)cc3)c12)C1CCC1` (single isomer, unassigned) [Example 9.65], the IC50 is 11.4 nM.

Still in this assay, the particulars now being: Table 11; read-out: FRET IC50.
As to `C[C@@H](Nc1nc(-c2noc(=O)[nH]2)nc2nc(N3CCCCC3c3cccnc3)n(C[C@H]3CC[C@H](C)CC3)c12)C1CCC1` (single isomer, unassigned) [Example 11.49], the IC50 worked out at 2.43 nM.
For `C[C@@H](Nc1nc(-c2noc(=O)[nH]2)nc2nc(N3CCCCC3c3cccnc3)n(C[C@H]3CC[C@H](C)CC3)c12)C1CCC1` (single isomer, unassigned) [Example 11.50], the IC50 was 14.3 nM.
Still for that read-out and setting: next, `C[C@@H]1CCCCN1c1nc2nc(-c3nc(=O)o[nH]3)nc(N[C@H](C)C3CCC3)c2n1C[C@H]1CC[C@H](C)CC1` (single isomer, unassigned) [Example 11.58]: 5.37 nM; `C[C@@H](Nc1nc(-c2nc(=O)o[nH]2)nc2nc(N3CCCC[C@@H]3C)n(C[C@H]3CC[C@H](C)CC3)c12)C1CCC1` (single isomer, unassigned) [Example 11.59]: 13.5 nM.
Turning to `CC1CCN(c2nc3nc(-c4noc(=O)[nH]4)nc(N[C@H](C)C4CCC4)c3n2C[C@H]2CC[C@H](C)CC2)C(c2ccccc2)C1` (single isomer, unassigned) [Example 11.68], the IC50 was determined as 2.04 nM.
As for `CC1CCN(c2nc3nc(-c4noc(=O)[nH]4)nc(N[C@H](C)C4CCC4)c3n2C[C@H]2CC[C@H](C)CC2)C(c2ccccc2)C1` (single isomer, unassigned) [Example 11.69], the concentration for half-maximal inhibition (IC50) amounted to 17.3 nM.
Same read-out and setting: next, `C[C@@H](Nc1nc(-c2noc(=O)[nH]2)nc2nc(N3CCOCC3c3ccccc3Cl)n(C[C@H]3CC[C@H](C)CC3)c12)C1CCC1` (single isomer, unassigned) [Example 11.117]: 3.77 nM; `C[C@@H](Nc1nc(-c2noc(=O)[nH]2)nc2nc(N3CCOCC3c3ccccc3Cl)n(C[C@H]3CC[C@H](C)CC3)c12)C1CCC1` (single isomer, unassigned) [Example 11.118]: 0.568 nM; `C[C@@H](Nc1nc(-c2noc(=O)[nH]2)nc2nc(NC(CO)c3ccccc3)n(C[C@H]3CC[C@H](C)CC3)c12)C1CCC1` (single isomer, unassigned) [Example 11.121]: 40.1 nM.
The same measure, in the same setting: to `C[C@@H](Nc1nc(-c2noc(=O)[nH]2)nc2nc(NC(CO)c3ccccc3)n(C[C@H]3CC[C@H](C)CC3)c12)C1CCC1` (single isomer, unassigned) [Example 11.122] belongs 4.17 nM.
For `C[C@@H](Nc1nc(-c2n[nH]c(=O)o2)nc2nc(N3CCOC4CCCCC43)n(C[C@H]3CC[C@H](C)CC3)c12)C1CCC1` (single isomer, unassigned) [Example 11.125], the half-inhibitory concentration (IC50) is 7.49 nM.

The assay is the same for the next values; noted with them: Table 23; read-out: FRET IC50.
Turning to `C[C@H]1CC[C@H](Cn2c(C(O)C3CCOCC3)nc3nc(-c4n[nH]c(=O)o4)nc(-c4cccc(Cl)c4)c32)CC1` (mixture of isomers) [Example 23.1, 5-{6-(3-chlorophenyl)-8-[hydroxy(tetrahydro-2H-pyran-4-yl)methyl]-7-[(trans-4-methylcyclohexyl)methyl] -7H-purin-2-yl}-1,3,4-oxadiazol-2(3H)-one], the IC50 was determined as 67.3 nM.
The same measure, in the same setting: next, `C[C@H]1CC[C@H](Cn2c(C(O)C3CCOCC3)nc3nc(-c4noc(=O)[nH]4)nc(-c4cccc(Cl)c4)c32)CC1` (mixture of isomers) [Example 23.2, 3-{6-(3-chlorophenyl)-8-[hydroxy(tetrahydro-2H-pyran-4-yl)methyl]-7-[(trans-4-methylcyclohexyl)methyl]-7H-purin-2-yl}-1,2,4-oxadiazol-5(4H)-one]: 51.5 nM; `CC(O)(c1nc2nc(-c3noc(=O)[nH]3)nc(-c3cccc(Cl)c3)c2n1C[C@H]1CC[C@H](C)CC1)C1CCOCC1` (mixture of isomers) [Example 23.4, 3-{6-(3-chlorophenyl)-8-[1-hydroxy-1-(tetrahydro-2H-pyran-4-yl)ethyl]-7-[(trans-4-methylcyclohexyl)methyl]-7H-purin-2-yl}-1,2,4-oxadiazol-5(4H)-one]: 19.2 nM.
With `COC(c1nc2nc(-c3noc(=O)[nH]3)nc(-c3cccc(Cl)c3)c2n1C[C@H]1CC[C@H](C)CC1)C1CCOCC1` (mixture of isomers) [Example 23.12, 3-{6-(3-chlorophenyl)-8-[methoxy(tetrahydro-2H-pyran-4-yl)methyl]-7-[(trans-4-methylcyclohexyl)methyl] -7H-purin-2-yl}-1,2,4-oxadiazol-5(4H)-one], the IC50 worked out at 13.3 nM.
Consider `C[C@H]1CC[C@H](Cn2c(C(O)C3CCOCC3)nc3nc(-c4noc(=O)[nH]4)nc(-c4cncc(Cl)c4)c32)CC1` (mixture of isomers) [Example 23.17, 3-{6-(5-chloropyridin-3-yl)-8-[hydroxy(tetrahydro-2H-pyran-4-yl)methyl]-7-[(trans-4-methylcyclohexyl)methyl] -7H-purin-2-yl}-1,2,4-oxadiazol-5(4H)-one], for which the IC50 is 67.3 nM.
For the compound `COC(c1ccccc1F)c1nc2nc(-c3n[nH]c(=O)o3)nc(-c3cncc(Cl)c3)c2n1C[C@H]1CC[C@H](C)CC1` (mixture of isomers) [Example 23.103, 5-{6-(5-chloropyridin-3-yl)-8-[(2-fluorophenyl)(methoxy)methyl]-7-[(trans-4-methylcyclohexyl)methyl]-7H-purin-2-yl}-1,3,4-oxadiazol-2(3H)-one], the IC50 amounted to 1.7 nM.
In the case of `COC(c1ccccc1C#N)c1nc2nc(-c3noc(=O)[nH]3)nc(-c3cncc(Cl)c3)c2n1C[C@H]1CC[C@H](C)CC1` (mixture of isomers) [Example 23.109, 2-{[6-(5-chloropyridin-3-yl)-7-[(trans-4-methylcyclohexyl)methyl]-2-(5-oxo-4,5-dihydro-1,2,4-oxadiazol-3-yl)-7H-purin-8-yl](methoxy)methyl}benzonitrile], the IC50 came out at 0.707 nM.
For the compound `COC1(c2nc3nc(-c4noc(=O)[nH]4)nc(-c4cncc(Cl)c4)c3n2C[C@H]2CC[C@H](C)CC2)CCCCC1C` (relative stereo) [Example 23.63, 3-{6-(5-chloropyridin-3-yl)-8-(1-methoxy-2-methylcyclohexyl)-7-[(trans-4-methylcyclohexyl)methyl] -7H-purin-2-yl}-1,2,4-oxadiazol-5(4H)-one], the concentration for half-maximal inhibition (IC50) was 7.64 nM.
The same measure, in the same setting: to `COC1(c2nc3nc(-c4n[nH]c(=O)o4)nc(-c4cncc(Cl)c4)c3n2C[C@H]2CC[C@H](C)CC2)CCCCC1C` (relative stereo) [Example 23.64, 5-{6-(5-chloropyridin-3-yl)-8-(1-methoxy-2-methylcyclohexyl)-7-[(trans-4-methylcyclohexyl)methyl] -7H-purin-2-yl}-1,3,4-oxadiazol-2(3H)-one] belongs 8.8 nM.
For the compound `CC1CCCCC1(F)c1nc2nc(-c3noc(=O)[nH]3)nc(-c3cncc(Cl)c3)c2n1C[C@H]1CC[C@H](C)CC1` (relative stereo) [Example 23.65, 3-{6-(5-chloropyridin-3-yl)-8-(1-fluoro-2-methylcyclohexyl)-7-[(trans-4-methylcyclohexyl)methyl] -7H-purin-2-yl}-1,2,4-oxadiazol-5(4H)-one], the IC50 was determined as 6.63 nM.
